The values below come from US6949542B2, “Dihydro-benzo[b][1,4]diazepin-2-one derivatives” (Hoffman-La Roche Inc., priority 2002, dated 2005).

Structures are written as SMILES.

Broadly, the melting point is the temperature of the solid-liquid transition. `COCCOc1cc2c(cc1C(F)(F)F)NC(=O)CC(c1cccc(-c3cc(C)nc(C)c3)c1)=N2` [Example 243, 4-[3-(2,6-Dimethyl-pyridin-4-yl)-phenyl]-7-(2-methoxy-ethoxy)-8-trifluoromethyl-1,3-dihydro-benzo[b][1,4]diazepin-2-one]: the melting point is 213 to 214 °C.

In turn, `C=Cc1cc2c(cc1C(F)(F)F)NC(=O)CC(c1cccc(-c3ccnc(C)c3)c1)=N2` [Example 244, 4-[3-(2-Methyl-pyridin-4-yl)-phenyl]-8-trifluoromethyl-7-vinyl-1,3-dihydro-benzo[b][1,4]diazepin-2-one] displayed a melting point of 200 to 201 °C.

`Cc1cc(C)c(-c2cccc(C3=Nc4cc(C)c(C(F)(F)F)cc4NC(=O)C3)c2)cn1` [Example 245, 4-[3-(4,6-Dimethyl-pyridin-3-yl)-phenyl]-7-methyl-8-trifluoromethyl-1,3-dihydro-benzo[b][1,4]diazepin-2-one]: the melting point lay in the range of 218 to 219 °C.

In turn, `CCOc1cc2c(cc1C(F)(F)F)NC(=O)CC(c1cccc(-c3cnc(C4CC4)cc3C)c1)=N2` [Example 247, 4-[3-(6-Cyclopropyl-4-methyl-pyridin-3-yl)-phenyl]-7-ethoxy-8-trifluoromethyl-1,3-dihydro-benzo[b][1,4]diazepin-2-one] registered a melting point of 202 °C.

Turning to `Cc1cc(C2CC2)ncc1-c1cccc(C2=Nc3cc(OCC(F)(F)F)c(C(F)(F)F)cc3NC(=O)C2)c1` [Example 248, 4-[3-(6-Cyclopropyl-4-methyl-pyridin-3-yl)-phenyl]-7-(2,2,2-trifluoro-ethoxy)-8-trifluoromethyl-1,3-dihydro-benzo[b][1,4]diazepin-2-one], the melting point was 206 °C.

`CCOc1cc2c(cc1C(F)(F)F)NC(=O)CC(c1cccc(-c3cc(C)nc(CC)c3)c1)=N2` [Example 250, 7-Ethoxy-4-[3-(2-ethyl-6-methyl-pyridin-4-yl)-phenyl]-8-trifluoromethyl-1,3-dihydro-benzo[b][1,4]diazepin-2-one]: the melting point amounted to 215 °C.

The compound `CCc1cc(-c2cccc(C3=Nc4cc(OCC(F)(F)F)c(C(F)(F)F)cc4NC(=O)C3)c2)cc(C)n1` [Example 251, 4-[3-(2-Ethyl-6-methyl-pyridin-4-yl)-phenyl]-7-(2,2,2-trifluoro-ethoxy)-8-trifluoromethyl-1,3-dihydro-benzo[b][1,4]diazepin-2-one] returned a melting point of 209 °C.

Turning to `CCOc1cc2c(cc1C(F)(F)F)NC(=O)CC(c1cccc(-c3cnc(C)cc3C)c1)=N2` [Example 252, 4-[3-(4,6-Dimethyl-pyridin-3-yl)-phenyl]-7-ethoxy-8-trifluoromethyl-1,3-dihydro-benzo[b][1,4]diazepin-2-one], the melting point was 226 to 228 °C.

`Cc1cc(C)c(-c2cccc(C3=Nc4cc(OCC(F)(F)F)c(C(F)(F)F)cc4NC(=O)C3)c2)cn1` [Example 253, 4-[3-(4,6-Dimethyl-pyridin-3-yl)-phenyl]-7-(2,2,2-trifluoro-ethoxy)-8-trifluoromethyl-1,3-dihydro-benzo[b][1,4]diazepin-2-one] showed a melting point of 176 to 180 °C.

`CCc1cc(C)c(-c2cccc(C3=Nc4cc(C)c(C(F)(F)F)cc4NC(=O)C3)c2)cn1` [Example 254, 4-[3-(6-Ethyl-4-methyl-pyridin-3-yl)-phenyl]-7-methyl-8-trifluoromethyl-1,3-dihydro-benzo[b][1,4]diazepin-2-one] gave a melting point of 200 °C.

Compound `CCOc1cc2c(cc1C(F)(F)F)NC(=O)CC(c1cccc(-c3cnc(CC)cc3C)c1)=N2` [Example 255, 7-Ethoxy-4-[3-(6-ethyl-4-methyl-pyridin-3-yl)-phenyl]-8-trifluoromethyl-1,3-dihydro-benzo[b][1,4]diazepin-2-one] had a melting point of 205 °C.

In turn, `CCc1cc(C)c(-c2cccc(C3=Nc4cc(OCC(F)(F)F)c(C(F)(F)F)cc4NC(=O)C3)c2)cn1` [Example 256, 4-[3-(6-Ethyl-4-methyl-pyridin-3-yl)-phenyl]-7-(2,2,2-trifluoro-ethoxy)-8-trifluoromethyl-1,3-dihydro-benzo[b][1,4]diazepin-2-one] showed a melting point of 145 to 160 °C.

`Cc1cc(-c2cccc(C3=Nc4cc(C)c(C(F)(F)F)cc4NC(=O)C3)c2)cc(C2CC2)n1` [Example 257, 4-[3-(2-Cyclopropyl-6-methyl-pyridin-4-yl)-phenyl]-7-methyl-8-trifluoromethyl-1,3-dihydro-benzo[b][1,4]diazepin-2-one] gave a melting point of 257 °C.

Compound `CCOc1cc2c(cc1C(F)(F)F)NC(=O)CC(c1cccc(-c3cc(C)nc(C4CC4)c3)c1)=N2` [Example 258, 4-[3-(2-Cyclopropyl-6-methyl-pyridin-4-yl)-phenyl]-7-ethoxy-8-trifluoromethyl-1,3-dihydro-benzo[b][1,4]diazepin-2-one] gave a melting point of 232 °C.

Regarding `Cc1cc(-c2cccc(C3=Nc4cc(OCC(F)(F)F)c(C(F)(F)F)cc4NC(=O)C3)c2)cc(C2CC2)n1` [Example 259, 4-[3-(2-Cyclopropyl-6-methyl-pyridin-4-yl)-phenyl]-7-(2,2,2-trifluoro-ethoxy)-8-trifluoromethyl-1,3-dihydro-benzo[b][1,4]diazepin-2-one], the melting point was found to be 200 °C.

Turning to `Cc1cc2c(cc1C(F)(F)F)NC(=O)CC(c1cccc(-c3cccnc3C)c1)=N2` [Example 260, 7-Methyl-4-[3-(2-methyl-pyridin-3-yl)-phenyl]-8-trifluoromethyl-1,3-dihydro-benzo[b][1,4]diazepin-2-one], the melting point came out at 246 °C.

The compound `Cc1cc(-c2cccc(C3=Nc4cc(CO)c(C(F)(F)F)cc4NC(=O)C3)c2)ccn1` [Example 261, 7-Hydroxymethyl-4-[3-(2-methyl-pyridin-4-yl)-phenyl]-8-trifluoromethyl-1,3-dihydro-benzo[b][1,4]diazepin-2-one] came in with a melting point of 218 °C.

Turning to `Cc1cc2c(cc1C(F)(F)F)NC(=O)CC(c1cccc(-c3ccnc(CC(C)C)c3)c1)=N2` [Example 262, 4-[3-(2-Isobutyl-pyridin-4-yl)-phenyl]-7-methyl-8-trifluoromethyl-1,3-dihydro benzo[b][1,4]diazepin-2-one], the melting point amounted to 209 °C.

`Cc1cc2c(cc1Cl)NC(=O)CC(c1cccc(-c3ccnc(C(F)(F)F)c3)c1)=N2` [Example 264, 8-Chloro-7-methyl-4-[3-(2-trifluoromethyl-pyridin-4-yl)-phenyl]-1,3-dihydro-benzo[b][1,4]diazepin-2-one] had a melting point of 247 °C.

In the case of `Cc1cc2c(cc1C(F)(F)F)NC(=O)CC(c1cccc(-c3ccnc(C(F)(F)F)c3)c1)=N2` [Example 265, 7-Methyl-8-trifluoromethyl-4-[3-(2-trifluoromethyl-pyridin-4-yl)-phenyl]-1,3-dihydro-benzo[b][1,4]diazepin-2-one], the melting point was 247 °C.

For the compound `O=C1CC(c2cccc(-c3ccnc(C(F)(F)F)c3)c2)=Nc2cc(Cl)c(C(F)(F)F)cc2N1` [Example 266, 7-Chloro-8-trifluoromethyl-4-[3-(2-trifluoromethyl-pyridin-4-yl)-phenyl]-1,3-dihydro-benzo[b][1,4]diazepin-2-one], the melting point was determined as 229 °C.

`O=C1CC(c2cccc(-c3ccnc(C(F)(F)F)c3)c2)=Nc2cc(Cl)c(Cl)cc2N1` [Example 267, 7,8-Dichloro-4-[3-(2-trifluoromethyl-pyridin-4-yl)-phenyl]-1,3-dihydro-benzo[b][1,4]diazepin-2-one]: the melting point worked out at 226 °C.

In turn, `O=C1CC(c2cccc(-c3ccnc(C(F)(F)F)c3)c2)=Nc2cc(OCC(F)(F)F)c(C(F)(F)F)cc2N1` [Example 268, 7-(2,2,2-Trifluoro-ethoxy)-8-trifluoromethyl-4-[3-(2-trifluoromethyl-pyridin-4-yl)-phenyl]-1,3-dihydro-benzo[b][1,4]diazepin-2-one] gave a melting point of 220 °C.

`CCOc1cc2c(cc1C(F)(F)F)NC(=O)CC(c1cccc(-c3ccnc(C(F)(F)F)c3)c1)=N2` [Example 269, 7-Ethoxy-8-trifluoromethyl-4-[3-(2-trifluoromethyl-pyridin-4-yl)-phenyl]-1,3-dihydro-benzo[b][1,4]diazepin-2-one]: the melting point is 251 °C.

`Cc1cc2c(cc1Cl)NC(=O)CC(c1cccc(-c3ccnc(C(C)C)c3)c1)=N2` [Example 270, 8-Chloro-4-[3-(2-isopropyl-pyridin-4-yl)-phenyl]-7-methyl-1,3-dihydro-benzo[b][1,4]diazepin-2-one] displayed a melting point of 196 °C.

`Cc1cc2c(cc1C(F)(F)F)NC(=O)CC(c1cccc(-c3ccnc(C(C)C)c3)c1)=N2` [Example 271, 4-[3-(2-Isopropyl-pyridin-4-yl)-phenyl]-7-methyl-8-trifluoromethyl-1,3-dihydro benzo[b][1,4]diazepin-2-one] yielded a melting point of 205 °C.

`CC(C)c1cc(-c2cccc(C3=Nc4ccc(C(F)(F)F)cc4NC(=O)C3)c2)ccn1` [Example 272, 4-[3-(2-Isopropyl-pyridin-4-yl)-phenyl]-8-trifluoromethyl-1,3-dihydro benzo[b][1,4]diazepin-2-one] returned a melting point of 168 °C.

`CC(C)c1cc(-c2cccc(C3=Nc4cc(Cl)c(C(F)(F)F)cc4NC(=O)C3)c2)ccn1` [Example 273, 7-Chloro-4-[3-(2-isopropyl-pyridin-4-yl)-phenyl]-8-trifluoromethyl-1,3-dihydro benzo[b][1,4]diazepin-2-one]: the melting point came to 200 °C.

With `CC(C)c1cc(-c2cccc(C3=Nc4cc(Cl)c(Cl)cc4NC(=O)C3)c2)ccn1` [Example 274, 7,8-Dichloro-4-[3-(2-isopropyl-pyridin-4-yl)-phenyl]-1,3-dihydro-benzo[b][1,4]diazepin-2-one], the melting point is 195 °C.

Compound `CC(C)c1cc(-c2cccc(C3=Nc4cc(OCC(F)(F)F)c(C(F)(F)F)cc4NC(=O)C3)c2)ccn1` [Example 275, 4-[3-(2-Isopropyl-pyridin-4-yl)-phenyl]-7-(2,2,2-trifluoro-ethoxy)-8-trifluoromethyl-1,3-dihydro-benzo[b][1,4]diazepin-2-one] came in with a melting point of 202 °C.

As for `CCOc1cc2c(cc1C(F)(F)F)NC(=O)CC(c1cccc(-c3ccnc(C(C)C)c3)c1)=N2` [Example 276, 4-[3-(2-Isopropyl-pyridin-4-yl)-phenyl]-7-ethoxy-8-trifluoromethyl-1,3-dihydro-benzo[b][1,4]diazepin-2-one], the melting point was 217 °C.
